Assay results: patent EP0727211A1, “Use of src SH2 specific compounds to treat a bone resorption disease” (SMITHKLINE BEECHAM CORPORATION, priority 1995, dated 1996)
pKi: −log10 of the molar value.

Biological target: T1, human lck SH2 domain (Homo sapiens, UniProt P06239)
T1 construct: Cloning and expression of human lck SH2 domain containing tags and an enterokinase proteolytic cleavage site; made in house; host or cells: E. coli AR120
Assay: SH2 domain / pY peptide binding assay (ELISA-based, 96 well plate), lck SH2
Details: Ki calculated from IC50 by the expanded equation; Table II
Protocol: The inhibitory activity of compounds at the different human SH2 domains was determined in vitro using SH2 domains expressed as fusion proteins in E. coli. The SH2 domains used herein were the human forms of the src SH2 domain, Grb2 SH2 domain, lck SH2 domain, fyn SH2 domain, SH-PTP2 SH2 domain, p85 SH2 domain and hcp SH2 domain.
The fusion proteins containing the src, lck and hcp SH2 domains were expressed as the general sequence: DET1-DET2-spacer-ek-SH2, where DETI, DET2, spacer, ek and SH2 are as described below. DET1 ("defined epitope tag 1") (SEQ ID NO: 1) is an 11 amino acid sequence found in the Human Immunodeficiency Virus Type 1 (HIV-1) envelope protein gp120 (or gp160). Monoclonal antibodies to various epitopes of HIV-1 gp120 (or gp160) are known in the art, see, for example U.S. Patent 5,166,050. One preferred example is monoclonal antibody 178.1 (see, e.g., Thiriart et al., J. Immunol., 143:1832-1836 (1989)), which was prepared by immunization of mice with a yeast-expressed HIV-1 gp160 molecule from strain BH10 (Ratner et al., Nature, 313:277-284 (1985)). This tag was used for detection of expression (by Western blot), for purification of the protein (by affinity chromatography), and for configuring assays in which the fusion protein was captured or immobilized using the 178.1 antibody. DET2 is a hexahistidine sequence tag (SEQ ID NO: 2) which binds to nickel-containing resins and was used for purification purposes. Spacer (SEQ ID NO: 3) was utilized to design a BamH1 restriction site at the indicated position of the construct. The term -ekrefers to a recognition sequence (SEQ ID NO: 4) for the enterokinase protease which provides for the optional removal of the tags from the SH2 domain, thus producing an SH2 domain that contains no extraneous amino acids. SH2 domains which contain no extraneous amino acids are preferable to tagged protein for crystallography studies. SH2 refers to the SH2 domains of different proteins.
Cloning and expression of human lck SH2 domain containing tags and an enterokinase proteolytic cleavage site (DET1-DET2-spacer-ek-lck SH2).
A DNA sequence encoding protein ek-lck SH2 was PCR amplified from a cDNA clone containing the human lck gene (Genbank accession number M36881) using the following primers: [formula]
The PCR product was digested with BamHI and XbaI, followed by isolation of the digested fragment on an agarose gel. The fragment was ligated into BamHI-XbaI-digested expression vector containing the tagged chicken src gene DET1-DET2-spacer-SH2 described in Procedure 1 above. In that vector, the BamHI site is located in between the coding regions for DET2 and SH2, and the XbaI site is located after the 3' end of the SH2 coding region. Thus, the ek-lck SH2 sequence replaced the src SH2 sequence in the above vector. The ligation reaction was used to transform E. coli MM294cI^+. The construct containing […] was confirmed by DNA sequencing (SEQ ID NO: 6) and induced in E. coli strain AR120 as described in Procedure 1 above. A Coomassie-Blue-stained, Western-blot-positive induced protein band with an apparent molecular weight of 17,000 was observed after nalidixic acid induction.
Cells were lysed at neutral pH by sonication in the presance of lysozyme. After centrifugation, the soluble extract was chromatographed on a Ni^++NTA column. After washing the column with equilibration buffer (Tris buffer pH 8 containing 0.5 M NaCl) and the same buffer containing 15 mM imidazole, the protein was eluted in highly purified form with 25 mM imidazole in equilibration buffer.
The binding assays for the SH2 domains and pY peptides were performed in an ELISA-based 96 well plate assay. In Millipore 96 well filter plates, hydrophilic Durapore® (pore size 0.65um Cat. No. MADVN6550), was added 2 ul (50% suspension) of Protein-G Sepharose (available from Pharmacia of N.J. Cat. No. 17-0618-01) and either 2 ul of 2 mg/ml of MAB178. […]

T1 sequence (P06239 127-224 limits assumed): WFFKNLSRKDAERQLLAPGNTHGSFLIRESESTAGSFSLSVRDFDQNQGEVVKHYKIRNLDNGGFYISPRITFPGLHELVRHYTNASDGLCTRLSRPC

CCCCCCNC(=O)[C@H]1CC[C@H](CNC(=O)c2ccc(C(=O)c3ccc(C(=O)O)cc3)cc2)CC1 [Compound 6, 4-carboxy-benzophenone-4-carboxamido-trans-4-methyl-cyclohexyl-N-hexyl carboxamide]
pKi: 4.30
